Patent publication US10845371B2, “Soluble MANF in pancreatic beta-cell disorders” (University of Massachusetts, priority 2012, dated 2020)

Experiments:
INS-1 832/13 cells [1] = experiment: Toxicity on INS-1 832/13 cells; format: cell-based, rat
[2] = system: MEROS-GFP (ER redox state) in INS-1 832/13 cells; experiment: MEROS-GFP pilot screen of 1280-compound library and follow-up screens; format: cell-based, rat; details: DTT screen, 0.4 mM palmitate + 20 mM glucose screen, FACS confirmation with 0.5 mM palmitate
Procedure: A pilot screen of a 1280-compound library (MicroSource), a collection of 1,040 U.S. drugs and 240 international drugs (FIG. 39) was performed. In this experiment, INS-1 832/13 cells stably-expressing MEROS-GFP were seeded (20,000 cells/well) in black optical 96-well plates. After 24 hours, 2 μL of each compound was added using the TeMo liquid handling robot. After another 24 hours, cells were challenged with 0.2 mM DTT, a strong reducing agent, for 2 hours, and then the MEROS-GFP ratio was calculated.

INS-1 832/13 cells [3] = experiment: Percentage of dead cells in thapsigargin-treated INS-1 832/13 cells; format: cell-based, rat
Procedure: (§1) FIG. 38 is two graphs showing the percentage of dead cells (left graph) or the median MEROS-GFP ratio (right graph) of INS-1 832/13 cells treated with DMSO alone, 10 nM thapsigargin (Tg), 10 nM Tg and 10 μM pioglitazone, or 10 nM Tg and 500 μg/mL tauroursodeoxycholic acid (TUDCA).
FIG. 43 is a graph of the percentage of dead cells following no treatment or treatment with 10 nM thapsigargin (Tg) or treatment with 10 nM Tg and 10 nM apomorphine.

[4] = system: MEROS-GFP (ER redox state) in INS-1 832/13 cells; experiment: Median MEROS-GFP ratio in thapsigargin-treated INS-1 832/13 cells; format: cell-based, rat; details: 10 nM thapsigargin; 10 μM pioglitazone or 500 μg/mL TUDCA, FIG. 38 right panel
Procedure: as §1
To investigate this possibility, two FDA-approved drugs, pioglitazone (Actos) and tauroursodeoxycholic acid (TUDCA), could affect the ER redox state and ameliorate cell death in cellular models of ER diseases. […] Another small molecule, TUDCA, has been used for treatment of gallstones and biliary cirrhosis and shown to mitigate ER stress in mouse models of diabetes.

[5] = system: INS-1 832/13 cells expressing MEROS-GFP; experiment: Reduced-ER cell population (MEROS-GFP FACS) after palmitate challenge; format: cell-based, rat; details: apomorphine 24 hours (10 μM per FIG. 40), then 0.5 mM palmitate 24 hours
INS-1 832/13 cells [6] = experiment: Cell viability (propidium iodide) after palmitate; format: cell-based, rat; details: 0.5 mM palmitate and 10 nM apomorphine, FIG. 42
INS-1 832/13 cells [7] = experiment: Mitochondrial membrane potential (MitoProbe staining) after palmitate; format: cell-based, rat; details: 0.5 mM palmitate; 10 nM or 50 nM apomorphine, FIGS. 41 and 42
[8] = system: WFS1-knockdown β-cells (INS-1 832/13-derived); experiment: Doxycycline-inducible WFS1 knockdown INS-1 832/13 cells, cellular model of Wolfram syndrome; format: cell-based, rat; details: 2 μM doxycycline shWFS1; 10 nM apomorphine or 10 μM pioglitazone, FIG. 44
Procedure: (§2) FIG. 44 are two immunoblots showing the amount of cleaved caspase 3 (c-caspase3) and cleaved PARP (c-PARP) present in 10 nM thapsigargin-treated primary human islets (right immunoblot) and 2 μM doxycycline-treated WFS1 knockdown INS-1 832/13 cells (shWFS1) (left immunoblot) treated with 10 nM apomorphine or 10 μM pioglitazone.
Additional experiments were performed using INS-1 832/13-derived doxycycline-inducible WFS1 knockdown cells, a cellular model of Wolfram syndrome. This model was used to test whether apomorphine and pioglitazone could prevent cell death.

human islets = experiment: Thapsigargin-mediated cell death in primary human islets (cleaved caspase 3 / PARP immunoblot); format: cell-based; details: 10 nM thapsigargin; 10 nM apomorphine or 10 μM pioglitazone, FIG. 44
Procedure: as §2
Additional experiments were performed to determine whether apomorphine and pioglitazone can protect human islets from ER stress-mediated cell death.

[9] = system: INS-1 832/13 cells (a pancreatic β-cell line); experiment: Reduced MEROS-GFP by FACS in INS-1 832/13 cells in high glucose with soluble MANF; format: cell-based, rat; details: 25 mM glucose; 0.5 μg/mL soluble MANF (48 hours per FIG. 45)
Procedure: FIG. 45 is a graph of fluorescence-assisted cell sorting data showing the percentage of INS1 832/13 cells (pancreatic (3 cell line) containing the reduced form of EroGFP in the endoplasmic reticulum following culture in 11 mM glucose or 25 mM glucose (24 hours) (top panels and bottom panels, respectively), and treatment with 0 or 0.5 μg/mL soluble MANF for 48 hours (left panels and right panels, respectively). The cells were excited using a wavelength at 473 nm and an emission spectrum of 510 nm.
Further experiments were performed to determine whether soluble MANF can prevent fluctuations in the redox environment in the endoplasmic reticulum of pancreatic β-cells upon exposure to an agent that induces endoplasmic reticulum stress. Experiments were performed using INS-1 832/13 cells (a pancreatic β-cell line) transfected with a lentivirus vector expressing MEROS-GFP. The cells were cultured in 11 mM or 25 mM glucose, and either left untreated or treated with 0.5 μg/mL soluble MANF. The cells were then analyzed using FACS analysis using an excitation spectrum between 460-495 nm and an emission spectrum of between 520-570 nm (FITC-A optical filter) which allows for the specific detection of fluorescent emission from reduced EroGFP in the transfected cells.

[10] = system: mouse pancreatic β-cell line (MIN6); experiment: Cleaved caspase-3 immunoblot in MIN6 cells treated with tunicamycin and soluble MANF; format: cell-based; details: tunicamycin 1 μM, 24 hours; 0, 40 or 200 nM soluble MANF, FIG. 8
Procedure: FIG. 8 is an immunoblot showing the levels of cleaved caspase-3 in a murine pancreatic β-cell line (MIN6) untreated or treated for 24-hours with 1 μM tunicamycin or 100 nM thapsigargin, and further treated with 0, 40, or 200 nM soluble MANF.
Additional experiments were performed to determine whether soluble MANF would decrease or delay endoplasmic reticulum stress-induced apoptosis in pancreatic β-cells treated with an endoplasmic reticulum stress-inducing chemical agent.

## COC1=CC(=O)C[C@@H](C)[C@]12Oc1c(Cl)c(OC)cc(OC)c1C2=O [griseofulvin]
INS-1 832/13 cells [1]
  Toxic effects on cells: strong toxic effects
[2]
  Outcome in the screening assays: positively identified in the screening assays

## C[C@H](CCC(=O)NCCS(=O)(=O)O)[C@H]1CC[C@H]2[C@@H]3[C@@H](O)C[C@@H]4C[C@H](O)CC[C@]4(C)[C@H]3CC[C@]12C [TUDCA, tauroursodeoxycholic acid]
INS-1 832/13 cells [3]; 10 nM thapsigargin, 10 μM pioglitazone or 500 μg/mL TUDCA, FIG. 38 left panel
  Cell death (percentage of dead cells): protect cells from death under ER stress conditions
[4]
  ER redox state (median MEROS-GFP ratio): shift the ER towards an oxidizing environment

## CN1CCc2cccc3c2[C@H]1Cc1ccc(O)c(O)c1-3 [apomorphine]
INS-1 832/13 cells [3]; 10 nM thapsigargin and 10 nM apomorphine, FIG. 43
  Cell death (percentage of dead cells): protected INS-1 832/13 cells from ER stress-mediated cell death
[5]
  Population of cells that had reduced ER: decreased the population of cells that had reduced ER
INS-1 832/13 cells [6]
  ER stress-induced cell death (propidium iodide): suppressed ER stress-induced cell death
INS-1 832/13 cells [7]
  Population with lower mitochondrial membrane potential: decreased the population with lower mitochondrial membrane potential
[8]
  Cell death of WFS1-knockdown cells: could protect WFS1-knockdown β-cells from cell death
  Cleavage of PARP (caspase 3 substrate): suppressed
  Cleavage of caspase 3: suppressed cleavage of caspase 3
Human islets
  Thapsigargin-mediated cell death: could protect human islets from thapsigargin-mediated cell death

B1: soluble MANF: soluble mammalian form of mesencephalic astrocyte-derived neurotrophic factor, e.g. human SEQ ID NO: 2; species of tested protein not stated (protein)
chain: LRPGDCEVCISYLGRFYQDLKDRDVTFSPATIENELIKFCREARGKENRLCYYIGATDDAATKIINEVSKPLAHHIPVEKICEKLKKKDSQICELKYDKQIDLSTVDLKKLRVKELKKILDDWGETCKGCAEKSDYIRKINELMPKYAPKAASARTDL
[9]
  Number of cells containing a detectable level of reduced MEROS-GFP: decrease in the number of cells containing a detectable level of reduced MEROS-GFP
[10]
  Caspase-3 cleavage: significantly reduced the amount of caspase-3 cleavage
